Experimental data taken from ChEMBL document CHEMBL1201862, “PubChem BioAssay data set” (2004).
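Compound exposure: 48 hours, 5 concentrations, 96-well plates. GI50 marks 50% less growth.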 Activity calls are given as the source filed them. No stated cut-off is given here; in the data, active = GI50 up to about 1.1 µM and inactive = higher.

Assays:
Test in all cases: inhibition of tumour cell growth, NCI panel, 48 h
[1] = system: CAKI-1
[2] = system: UACC-257
[3] = system: CCRF-CEM
[4] = system: COLO 205
[5] = system: LXFL 529
[6] = system: SF-295
[7] = system: OVCAR-8
[8] = system: K562
[9] = system: U-251
[10] = system: NCI-H226
[11] = system: HOP-62
[12] = system: IGROV-1
[13] = system: KM12
[14] = system: OVCAR-5
[15] = system: UACC-62
[16] = system: LOX IMVI
[17] = system: SK-MEL-2
[18] = system: NCI-H23
[19] = system: SR
[20] = system: MDA-N

Measured: GI50

COc1cc(/C=C\c2ccncc2)cc(OC)c1OC
inactive: [1] 80 µM | [2] > 100 µM | [3] > 100 µM | [4] 42.1 µM | [5] 67.6 µM | [6] 54.3 µM | [7] > 100 µM | [8] 27.3 µM | [9] > 100 µM | [10] > 100 µM | [11] > 100 µM | [12] > 100 µM | [13] 48.1 µM | [14] 63.5 µM | [15] 59.2 µM | [16] 44.2 µM

COc1ccc(/C=N/N=C(\N)NO)c(OC)c1
inactive: [1] 19.2 µM | [2] 80.7 µM | [3] 79.8 µM | [4] 49.7 µM | [5] 8.81 µM | [6] 16.1 µM | [7] 61 µM | [8] 15.7 µM | [9] > 100 µM | [17] 52.4 µM | [10] 34.1 µM | [11] 16.2 µM | [12] > 100 µM | [13] 30.3 µM | [18] 46.7 µM | [14] 9.77 µM | [15] 27.9 µM | [16] 24.7 µM

Cc1cc(C(=O)N2CCN(Cc3ccccc3)CC2)c(C)o1
inactive: [1] > 100 µM | [2] > 100 µM | [3] > 100 µM | [5] > 100 µM | [6] > 100 µM | [7] > 100 µM | [8] > 100 µM | [9] > 100 µM | [11] > 100 µM | [12] > 100 µM | [13] > 100 µM | [18] > 100 µM | [14] > 100 µM | [19] > 100 µM | [15] > 100 µM | [16] > 100 µM

CC(C)(C)C(=O)C(c1ccc(-c2cscn2)cc1)c1ccc(-c2cscn2)cc1
inactive: [1] 33.4 µM | [2] 76 µM | [3] > 100 µM | [4] > 89.7 µM | [5] 39.7 µM | [6] 18.1 µM | [7] 16.7 µM | [8] > 92.9 µM | [9] 20.7 µM | [17] 21.4 µM | [10] > 49.7 µM | [11] 18.5 µM | [12] 37.8 µM | [13] > 83.9 µM | [18] 30.5 µM | [14] > 100 µM | [15] 21.7 µM | [16] > 69.2 µM

CCN(CC)CC(C(=O)Nc1c(C)cccc1C)/C(C)=N\NC(=S)NN (stereo not given)
inactive: [2] > 100 µM | [3] > 100 µM | [4] > 100 µM | [5] > 100 µM | [6] > 100 µM | [7] > 100 µM | [8] > 100 µM | [9] > 100 µM | [17] > 100 µM | [10] > 100 µM | [11] > 100 µM | [12] > 100 µM | [13] > 100 µM | [18] > 100 µM | [14] > 100 µM | [15] > 100 µM | [16] > 100 µM

Clc1cc2nc[nH]c2cc1Cl
inactive: [1] > 100 µM | [3] > 100 µM | [4] > 100 µM | [5] > 100 µM | [6] > 100 µM | [7] > 100 µM | [8] > 100 µM | [9] > 100 µM | [17] > 100 µM | [10] 36.7 µM | [11] 93.8 µM | [12] > 100 µM | [13] 71.8 µM | [18] > 100 µM | [14] > 100 µM | [15] 76 µM | [16] > 100 µM

COC(=O)C1(O)c2ccccc2N=C2C1CCN2C (stereo not given)
inactive: [1] > 100 µM | [2] > 100 µM | [3] > 100 µM | [4] > 100 µM | [5] > 100 µM | [6] > 100 µM | [7] > 100 µM | [8] > 100 µM | [9] > 100 µM | [17] > 100 µM | [11] > 100 µM | [12] > 100 µM | [13] > 100 µM | [18] > 100 µM | [14] > 100 µM | [19] > 100 µM | [15] > 100 µM | [16] > 100 µM

c1c[nH]c(Cc2nc(Cc3c[nH]cn3)c[nH]2)n1
inactive: [1] 27.9 µM | [3] 5.06 µM | [4] 5.37 µM | [5] 6.7 µM | [6] 35.6 µM | [7] 33.5 µM | [8] 3.37 µM | [9] 34 µM | [17] 13.7 µM | [10] 11.2 µM | [11] 17.5 µM | [12] 16.5 µM | [13] 7.64 µM | [18] 34.8 µM | [14] 1.53 µM | [15] 19.8 µM | [16] 16.5 µM

N#CCc1nc2c(s1)C(=O)c1ccccc1C2=O
inactive: [1] 22.2 µM | [2] 15.2 µM | [4] 18.7 µM | [5] 15 µM | [6] 19.4 µM | [7] 10.8 µM | [8] 11.8 µM | [9] 17.3 µM | [17] 17.3 µM | [10] 19.8 µM | [11] 15 µM | [12] 3.76 µM | [13] 18.5 µM | [18] 17.5 µM | [14] 22.6 µM | [15] 13.1 µM | [16] 13.5 µM

CCOC(=O)NC(=O)c1cn(C2CCCCC2)c(=O)[nH]c1=O
inactive: [1] > 100 µM | [2] > 100 µM | [3] 33.3 µM | [4] 98.9 µM | [5] 39.7 µM | [6] 94 µM | [7] > 100 µM | [8] 4.9 µM | [9] 56.8 µM | [17] > 100 µM | [10] > 100 µM | [11] 38 µM | [12] 54.8 µM | [13] 78.2 µM | [18] > 100 µM | [14] > 100 µM | [15] 40 µM | [16] 9.75 µM

O=C1C2Nc3ccccc3SC2C(=O)N1c1ccc(Br)cc1 (stereo not given)
inactive: [2] 26.5 µM | [3] > 10 µM | [4] 55.5 µM | [5] 20.7 µM | [6] 26.6 µM | [7] 37.4 µM | [8] 21.9 µM | [17] 17.7 µM | [10] 7.24 µM | [11] 17.1 µM | [12] 53.1 µM | [13] 28.2 µM | [18] 36.5 µM | [14] > 100 µM | [15] 20 µM | [16] 27.9 µM

COc1cc2c(cc1OC)-c1c(cc(OC)c(OC)c1OC)C2=O
inactive: [2] > 100 µM | [3] 81.7 µM | [4] > 100 µM | [5] > 100 µM | [6] > 100 µM | [7] > 100 µM | [8] > 100 µM | [9] > 100 µM | [10] > 100 µM | [11] 25.9 µM | [12] > 100 µM | [13] > 100 µM | [18] > 100 µM | [14] > 100 µM | [19] > 100 µM | [15] > 100 µM | [16] > 100 µM

CCOC(=O)C(=O)Nc1nc2ccc(OC)cc2s1
inactive: [1] > 100 µM | [2] > 100 µM | [3] > 100 µM | [4] > 100 µM | [5] > 100 µM | [6] > 100 µM | [7] > 100 µM | [8] > 100 µM | [9] > 100 µM | [17] > 100 µM | [10] > 100 µM | [11] > 100 µM | [12] > 100 µM | [13] > 100 µM | [18] > 100 µM | [14] > 100 µM | [15] > 100 µM | [16] > 100 µM

O=C(Nc1ccccc1)OCCN=C1c2ccccc2CCc2ccccc21
inactive: [1] 18.5 µM | [2] 23.1 µM | [3] 20.6 µM | [20] 19.6 µM | [4] 17.6 µM | [6] 15.5 µM | [7] 31.5 µM | [8] 15.1 µM | [9] 17.3 µM | [17] 15 µM | [10] 29.4 µM | [11] 19.7 µM | [12] 19.1 µM | [13] 14.3 µM | [18] 55.2 µM | [14] 28.7 µM | [19] 12.2 µM | [15] 13.1 µM | [16] 20 µM

C(=C\c1cccc(/C=C/c2ccccn2)n1)/c1ccccn1
inactive: [1] 50.7 µM | [2] > 100 µM | [3] 37 µM | [20] 68.2 µM | [4] 39.8 µM | [6] 66.2 µM | [7] 36.2 µM | [8] 47.8 µM | [9] > 100 µM | [17] > 100 µM | [10] > 100 µM | [11] > 100 µM | [12] 61.8 µM | [13] 46.8 µM | [18] 66.5 µM | [14] > 100 µM | [19] 62.2 µM | [15] 27.1 µM | [16] 66.4 µM

CC1=CP(=O)(c2ccccc2)C=C(C)C1=C(Cl)Cl (stereo not given)
inactive: [3] 3.93 µM | [4] 4.45 µM | [5] 3.27 µM | [6] 5.38 µM | [7] 10.9 µM | [8] 3.21 µM | [9] 6.71 µM | [10] 3.19 µM | [11] 3.26 µM | [12] 17.3 µM | [13] 3.37 µM | [18] 17.4 µM | [15] 6.43 µM | [16] 4.05 µM
